From patent publication US12029738B2, “Antiproliferative compounds and methods of use thereof” (Celgene Corporation, priority 2017, dated 2024) come the findings set out here.

Assay [1] has as its system OPM2. Briefly: PBMC and MM cell treatment assay (single culture vs co-culture). The following applies: Homo sapiens, OPM-2, OPM2, read-out: Immune-mediated Cell Killing IC50. Format: cell-based. As to the method:
PBMC and MM Cell Treatment Assay Procedure. Ninety-six-well dishes were pre-coated with anti-CD3 antibody (OKT3, 3 μg/mL) and incubated at 4° C. overnight before the start of the experiment. Frozen PBMC donor cells were thawed at 37° C. for 2 minutes in RPMI medium with 10% FBS and cell counts and viability were measured on the Vi-CELL analyzer. Peripheral blood mononuclear cells were washed and diluted to 1×10^6 cells/mL and dispensed into the compound-treated plates in a total volume of 200 μL. Cells were incubated with compounds for 2 h before being transferred onto anti-CD3-coated plates and incubated for an additional 72 h. At the same time, MM cell lines (NCI-H929, H929-1051, OPM2, OPM2-P10) were diluted to a final concentration of 0.1×10^6 cells/mL and labeled with CellTrace CFSE according to manufacturer's instructions. Multiple myeloma cell lines were then dispensed into compound-treated plates at a total volume of 200 μL and incubated for 72 h. After 72 h, the PBMCs and MM cells were counted and transferred into a U-bottom 96-well plate at a final T:E ratio of 1:5. After 24 h coculture, specific target cell lysis by PBMC cells was measured using Annexin V-AF647 and 7-AAD according to manufacturer's instructions and samples were run on the Attune NxT Cytometer.
Because preincubation of immune cells with Compound 2 enhanced the targeting and lysing of MM cells, the effect of preincubation of MM cells with Compound 2 on their susceptibility to immune-mediated killing was also explored (FIG. 16A, FIG. 16B, FIG. 16C, and FIG. 16D, Table 12). Four MM cell lines and anti-CD3 antibody-activated PBMCs were separately preincubated with Compound 2, lenalidomide, or pomalidomide for 72 h. When anti-CD3 antibody-activated PBMCs and MM lines were both pretreated with Compound 2, lenalidomide, or pomalidomide, followed by co-culture, the effects on the PBMC-induced MM cell lysis were enhanced both in the potency and magnitude of the killing response. […] For the pomalidomide-resistant OPM2-P10 cell line, Compound 2 treatment of the MM cells enhanced the immune-mediated killing by ˜3000-fold (Table 12).

Assay [2] concerns K562 cells. Briefly: Coculture of compound-treated IL-2-activated PBMCs with K562 cells. Format: cell-based, human. The following applies: for pIC50: Homo sapiens, K562, IL-2-activated PBMCs treated 72 h, 4 h coculture, read-out: IC50 of compound-treated PBMCs for direct K562 cell killing. As to the method:
Coculture Experiments with Peripheral Blood Mononuclear Cells and K562 Cells. Methods: Human Peripheral Blood Mononuclear Cell (PBMC) Preparation: PBMCs isolated from healthy donors were cultured in RPMI 1640 medium with 10% FBS at a density of 1×10^6 cells/mL.
Cell Culture: K562 cells were kept in log phase, and cell density and viability were monitored by trypan blue exclusion using the Vi-CELL® XR cell viability analyzer (Beckman Coulter, Brea, CA).
Assay Procedures: Freshly isolated human PBMCs were cultured with recombinant IL-2 at concentration of 20 units/mL for 72 h. Peripheral blood mononuclear cells were then spun down and re-suspended in fresh RPMI complete medium to 2×10^6 cells/mL. Cells were then treated with DMSO or compounds at the indicated concentrations and incubated for an additional 72 h. The PBMCs were then washed twice in fresh RPMI complete medium prior to coculture. K562 cells were re-suspended to a cell density of 1×10^6/mL and stained with 1 μM CellTrace CFSE according to manufacturer's instructions. The labeled K562 cells were then seeded into a 96-well round bottom plate at 1×10^5 cells/well. Peripheral blood mononuclear cells were then transferred into the same 96-well plate at a 1:15 ratio, in triplicate and incubated at 37° C. for 4 h. Specific target cell lysis by PBMC cells was measured using Annexin V-fluorescein isothiocyanate (FITC) and propidium iodide (PI) according to manufacturer's instructions and samples were run on the FACS Array scan. Non-labeled K562 cells, CellTrace CFSE-labeled K562 cells, and Annexin V-FITC- and PI labeled untreated K562 cells were included in each assay as controls.

In assay [3] the test system is JJN-3. The assay can be described thus: Flow cytometry proliferation/apoptosis assay (120 h). Format: cell-based, human. As to the method:
Methods. […] Using 5 mM stocks, compounds were pre-spotted into the appropriate wells of 96-well plates using a Hewlett-Packard D300 Digital Dispenser. Cells were added to 96-well plates using a Multidrop Combi Reagent Dispenser. After 5 days of treatment, flow cytometric analysis was used to determine the number of cells that were alive, dead, or apoptotic. After 5 days of treatment, cells were incubated with annexin V to stain exposed phosphatidylserine, an apoptotic cell-surface marker, and the vital dye 7-AAD, which is excluded from cells with intact cell membranes, and analyzed by flow cytometry (Attune®, Thermo Fisher). Analysis was then performed to determine the number of live cells (annexin V and 7-AAD double negative staining cells) and the percentage of apoptotic cells (annexin V positive cells) for each condition, relative to the DMSO control treated, was calculated. All described values were normalized to DMSO-only treated cells. […] The live cell count for every concentration was normalized to the DMSO control (considered as 100%) in Microsoft Excel to generate the proliferation curves. […] Similarly, for apoptosis analysis, the percentage of drug-induced apoptosis was calculated for all doses by combining both “early” (annexin V positive and 7-AAD negative) and “late” apoptosis (annexin V and 7-AAD positive) values and subtracting background values (cell treated with vehicle control DMSO). […] The area under the dose-response curve (AUC) was calculated since it integrates potency and efficacy of the drugs to represent apoptosis into a single parameter.
Each data point represents 2 independent experiments with at least two samples in each experiment.
(Flow cytometry measures light scatter and fluorescence of single cells or particles in a stream.)

Setting [4] is: JJN-3 (DSMZ); 120 h; scale 0-10000.

pIC50: −log10 of the molar value. Like-named read-outs stand apart in the source and are kept apart here.

Broadly, the pIC50 is the negative decadic logarithm of the IC50, by convention in mol/L. With `Nc1cccc2c1C(=O)N(C1CCC(=O)NC1=O)C2=O` (stereo not drawn) [Pomalidomide, pomalidomide], the negative logarithm of the IC50 (pIC50) is 6.77 in assay [1] (Co-culture with PBMCs), 6.20 in assay [1] (Single culture), 8.40 in assay [2] and 6.44 in assay [3] (Homo sapiens; JJN-3; 120 h; read-out: Antiproliferative Activity (Flow Cytometry) IC50). For the same compound, the “induced apoptosis AUC (area under the dose response curve)” value in assay [3] (setting [4]) amounted to 199.1.
For the compound `N#Cc1ccc(N2CCN(Cc3ccc(COc4cccc5c4CN([C@H]4CCC(=O)NC4=O)C5=O)cc3)CC2)c(F)c1` [Compound 2, (S)-4-(4-(4-(((2-(2,6-dioxopiperidin-3-yl)-1-oxoisoindolin-4-yl)oxy)methyl)benzyl)piperazin-1-yl)-3-fluorobenzonitrile], the pIC50 in assay [1] (Co-culture with PBMCs) was 10.03; in assay [1] (Single culture) it was 9.52; in assay [2], 5.23; in assay [3] (Homo sapiens, JJN-3, 120 h, read-out: Antiproliferative Activity (Flow Cytometry) IC50), 10.00. Also, the “potency relative to lenalidomide-treated PBMCs” value in assay [2] (50% direct K562 cell killing) is listed as around 2600 fold. Further, the “potency relative to pomalidomide-treated PBMCs” value in assay [2] (50% direct K562 cell killing) is given as around 600 fold. Moreover, in assay [3] (setting [4]), the “induced apoptosis AUC (area under the dose response curve)” value stood at 1125.
